Source: ChEMBL document CHEMBL1201862, “PubChem BioAssay data set” (2004)
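Values below derive from 48-hour exposures of cells grown in 96-well plates, with endpoints linearly interpolated between the two concentrations bracketing the appropriate inhibition level. At the GI50, growth is halved.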 Activity calls are given as the source filed them. Rule as the data show it: active = GI50 up to about 1.1 µM and inactive = higher.

Columns and labels:
Assay in all cases: NCI tumour cell line growth inhibition, 48 h
[1] = test system: 786-0
[2] = test system: A498
[3] = test system: A549
[4] = test system: ACHN
[5] = test system: CAKI-1
[6] = test system: CCRF-CEM
[7] = test system: COLO 205
[8] = test system: DLD-1
[9] = test system: DMS-114
[10] = test system: DMS-273
[11] = test system: EKVX
[12] = test system: HCC 2998
[13] = test system: HCT-15
[14] = test system: HL-60
[15] = test system: HOP-62
[16] = test system: HOP-92
[17] = test system: HT-29
[18] = test system: IGROV-1
[19] = test system: K562
[20] = test system: KM-20L2
[21] = test system: KM12
[22] = test system: LOX IMVI
[23] = test system: LXFL 529
[24] = test system: M14
[25] = test system: M19-MEL
[26] = test system: MOLT-4
[27] = test system: Malme-3M
[28] = test system: NCI-H226
[29] = test system: NCI-H23
[30] = test system: NCI-H460
[31] = test system: NCI-H522
[32] = test system: OVCAR-3
[33] = test system: OVCAR-4
[34] = test system: OVCAR-5
[35] = test system: OVCAR-8
[36] = test system: RPMI-8226
[37] = test system: RXF 393
[38] = test system: SF-268
[39] = test system: SF-295
[40] = test system: SF-539
[41] = test system: SK-MEL-28
[42] = test system: SK-MEL-2
[43] = test system: SK-MEL-5
[44] = test system: SK-OV-3
[45] = test system: SN12C
[46] = test system: SNB-19
[47] = test system: SNB-75
[48] = test system: SNB-78
[49] = test system: SW-620
[50] = test system: TK-10
[51] = test system: UACC-257
[52] = test system: UACC-62
[53] = test system: UO-31
[54] = test system: XF498
[55] = test system: HCT-116
[56] = test system: SR
[57] = test system: U-251

## Brc1cc(C2OCCCO2)ccc1OCc1ccccc1
[1]
  GI50: 40.4 µM (inactive)
[2]
  GI50: > 100 µM (inactive)
[3]
  GI50: 64.6 µM (inactive)
[4]
  GI50: 73.6 µM (inactive)
[5]
  GI50: 54 µM (inactive)
[6]
  GI50: 41.2 µM (inactive)
[7]
  GI50: 27.4 µM (inactive)
[8]
  GI50: 37 µM (inactive)
[9]
  GI50: 44.3 µM (inactive)
[10]
  GI50: 47.8 µM (inactive)
[11]
  GI50: 52.8 µM (inactive)
[12]
  GI50: 30.3 µM (inactive)
[13]
  GI50: 48 µM
[14]
  GI50: 25.2 µM (inactive)
[15]
  GI50: 43.9 µM (inactive)
[16]
  GI50: 33.6 µM (inactive)
[17]
  GI50: 17.5 µM (inactive)
[18]
  GI50: > 100 µM (inactive)
[19]
  GI50: 34.5 µM (inactive)
[20]
  GI50: > 10 µM (inactive)
[21]
  GI50: 33.7 µM (inactive)
[22]
  GI50: 25.8 µM (inactive)
[23]
  GI50: 45.9 µM (inactive)
[24]
  GI50: 33.5 µM (inactive)
[25]
  GI50: 66.5 µM (inactive)
[26]
  GI50: 24.9 µM (inactive)
[27]
  GI50: 31.8 µM (inactive)
[28]
  GI50: 73.1 µM (inactive)
[29]
  GI50: 45.6 µM (inactive)
[30]
  GI50: 50.9 µM (inactive)
[31]
  GI50: 26.9 µM (inactive)
[32]
  GI50: 74.1 µM (inactive)
[33]
  GI50: 31.2 µM (inactive)
[34]
  GI50: 29.6 µM (inactive)
[35]
  GI50: 57.3 µM (inactive)
[36]
  GI50: 25.9 µM (inactive)
[37]
  GI50: 67.9 µM (inactive)
[38]
  GI50: 76.4 µM (inactive)
[39]
  GI50: 52.8 µM (inactive)
[40]
  GI50: 64.3 µM (inactive)
[41]
  GI50: > 100 µM (inactive)
[42]
  GI50: 81.7 µM (inactive)
[43]
  GI50: 27.2 µM (inactive)
[44]
  GI50: > 100 µM (inactive)
[45]
  GI50: > 100 µM (inactive)
[46]
  GI50: 88.7 µM (inactive)
[47]
  GI50: 45.3 µM (inactive)
[48]
  GI50: 34.8 µM (inactive)
[49]
  GI50: 30.1 µM (inactive)
[50]
  GI50: 40.7 µM (inactive)
[51]
  GI50: 31.9 µM (inactive)
[52]
  GI50: 47.9 µM (inactive)
[53]
  GI50: 52.4 µM (inactive)
[54]
  GI50: 59.3 µM (inactive)

## CN(CCO)/N=N/c1[nH]cnc1C(N)=O
[2]
  GI50: > 100 µM (inactive)
[3]
  GI50: > 100 µM (inactive)
[4]
  GI50: > 100 µM (inactive)
[6]
  GI50: 21.5 µM (inactive)
[7]
  GI50: > 100 µM (inactive)
[8]
  GI50: > 100 µM (inactive)
[9]
  GI50: > 100 µM (inactive)
[10]
  GI50: 49.9 µM (inactive)
[11]
  GI50: > 100 µM (inactive)
[12]
  GI50: > 100 µM (inactive)
[55]
  GI50: 49.5 µM (inactive)
[13]
  GI50: > 100 µM
[14]
  GI50: 79.3 µM (inactive)
[15]
  GI50: 74 µM (inactive)
[16]
  GI50: 77.8 µM (inactive)
[17]
  GI50: > 100 µM (inactive)
[18]
  GI50: > 100 µM (inactive)
[20]
  GI50: > 100 µM (inactive)
[21]
  GI50: > 100 µM (inactive)
[22]
  GI50: 26.2 µM (inactive)
[23]
  GI50: > 100 µM (inactive)
[24]
  GI50: 37.8 µM (inactive)
[25]
  GI50: > 100 µM (inactive)
[26]
  GI50: > 100 µM (inactive)
[27]
  GI50: 52.8 µM (inactive)
[28]
  GI50: > 100 µM (inactive)
[29]
  GI50: > 100 µM (inactive)
[30]
  GI50: > 100 µM (inactive)
[31]
  GI50: > 100 µM (inactive)
[32]
  GI50: > 100 µM (inactive)
[33]
  GI50: > 100 µM (inactive)
[34]
  GI50: > 100 µM (inactive)
[35]
  GI50: 45.7 µM (inactive)
[36]
  GI50: > 100 µM (inactive)
[37]
  GI50: > 100 µM (inactive)
[38]
  GI50: 84.1 µM (inactive)
[39]
  GI50: 77.8 µM (inactive)
[40]
  GI50: > 100 µM (inactive)
[41]
  GI50: > 100 µM (inactive)
[42]
  GI50: 22.5 µM (inactive)
[43]
  GI50: > 100 µM (inactive)
[44]
  GI50: 30.9 µM (inactive)
[45]
  GI50: > 100 µM (inactive)
[46]
  GI50: > 100 µM (inactive)
[47]
  GI50: 26.8 µM (inactive)
[48]
  GI50: > 100 µM (inactive)
[56]
  GI50: 39.7 µM (inactive)
[49]
  GI50: 69.3 µM (inactive)
[50]
  GI50: 49.2 µM (inactive)
[57]
  GI50: > 100 µM (inactive)
[51]
  GI50: 99.8 µM (inactive)
[52]
  GI50: 83.8 µM (inactive)
[54]
  GI50: 82.2 µM (inactive)

## CCN(CC)CC1CCCCN1CC(=O)N1c2cc(Cl)ccc2NC(=O)CC1C (stereo not given)
[1]
  GI50: > 100 µM (inactive)
[2]
  GI50: > 100 µM (inactive)
[3]
  GI50: > 100 µM (inactive)
[4]
  GI50: > 100 µM (inactive)
[5]
  GI50: > 100 µM (inactive)
[6]
  GI50: > 100 µM (inactive)
[7]
  GI50: > 100 µM (inactive)
[8]
  GI50: > 100 µM (inactive)
[9]
  GI50: > 100 µM (inactive)
[10]
  GI50: > 100 µM (inactive)
[11]
  GI50: > 100 µM (inactive)
[12]
  GI50: > 100 µM (inactive)
[55]
  GI50: > 100 µM (inactive)
[13]
  GI50: > 10 µM
[14]
  GI50: > 100 µM (inactive)
[15]
  GI50: > 100 µM (inactive)
[16]
  GI50: > 100 µM (inactive)
[19]
  GI50: > 100 µM (inactive)
[20]
  GI50: > 100 µM (inactive)
[21]
  GI50: > 100 µM (inactive)
[22]
  GI50: > 100 µM (inactive)
[23]
  GI50: > 100 µM (inactive)
[24]
  GI50: > 100 µM (inactive)
[25]
  GI50: > 100 µM (inactive)
[26]
  GI50: > 100 µM (inactive)
[27]
  GI50: > 100 µM (inactive)
[28]
  GI50: > 100 µM (inactive)
[29]
  GI50: > 100 µM (inactive)
[30]
  GI50: > 100 µM (inactive)
[31]
  GI50: > 100 µM (inactive)
[32]
  GI50: > 100 µM (inactive)
[33]
  GI50: > 100 µM (inactive)
[34]
  GI50: > 100 µM (inactive)
[35]
  GI50: > 100 µM (inactive)
[36]
  GI50: > 100 µM (inactive)
[38]
  GI50: > 100 µM (inactive)
[40]
  GI50: > 100 µM (inactive)
[41]
  GI50: > 100 µM (inactive)
[42]
  GI50: > 100 µM (inactive)
[43]
  GI50: > 100 µM (inactive)
[44]
  GI50: 0.0849 µM (active)
[45]
  GI50: > 100 µM (inactive)
[46]
  GI50: > 100 µM (inactive)
[47]
  GI50: > 100 µM (inactive)
[48]
  GI50: > 100 µM (inactive)
[56]
  GI50: > 100 µM (inactive)
[49]
  GI50: > 100 µM (inactive)
[50]
  GI50: > 100 µM (inactive)
[57]
  GI50: > 100 µM (inactive)
[51]
  GI50: > 100 µM (inactive)
[52]
  GI50: 55.3 µM (inactive)
[53]
  GI50: > 100 µM (inactive)
[54]
  GI50: > 100 µM (inactive)
